One series addresses human IRAK4 (Homo sapiens (Human), UniProt Q9NWZ3). In words: IRAK4 enzymatic assay (Transcreener fluorescence polarization, ADP detection). Particulars: recombinant full-length IRAK4; 125 uM ATP; 90 min. The class given is biochemical. As for the experimental part:
Compounds were assayed for inhibition of human IRAK4 and IRAK1 catalytic activity using recombinant enzyme produced from insect cells. Full-length IRAK4 protein, carrying an N-terminal His6-Tag, was obtained from Life Technologies (Carlsbad, Calif., USA). The IRAK1 construct was produced internally and was comprised of IRAK1 residues Arg194 to Ser712, preceded by an NH2-terminal His6 tag and the coding sequence for glutathione-S-transferase.
Kinase activities were assayed using the Transcreener-Fluorecescence polarization platform (BelBrook Labs, Madison, Wis., USA) that measures amounts of the reaction product, ADP. […] Final IRAK4 assay conditions were 1.25 nM IRAK4; 125 uM ATP; 10 uM MgC2; 125 uM peptide in reaction buffer (25 mM HEPES (pH7.4); 2 mM Dithiothreitol; 0.015% Brij-35; and 0.5% dimethyl sulfoxide. The IRAK1 activity was optimized similarly, yielding final assay conditions of […] IRAK1; 62.5 uM ATP; 5 uM MgCl2, and 62.5 uM IRAK1 peptide in reaction buffer for 60 min.
Assays of compounds for kinase inhibition were performed using inhibitors serially-diluted in dimethyl sulfoxide, which was accomplished with a LabCyte Echo 555 liquid dispenser. 384 well assay plates spotted with compound received 4 ul of a 2× substrate (ATP+peptide) mix in reaction buffer, followed by 4 ul of 2× enzyme diluted in reaction buffer. Reactions were halted at 60 (IRAK1) or 90 (IRAK4) min by addition of 6 ul of detection buffer, containing EDTA ([…] final concentration), 0.95 ug of the ADP-binding antibody ADP2, ADP tracer (3 nM final concentration), and […] HEPES. Following a 1 hr incubation, fluorescence polarization of the ADP2-antibody::TRACER complex was read on a Tecan M1000 plate reader using a 635/20 excitation filter in combination with a 670/20 emission filter. Delta milli-P values were analyzed using Genedata software to fit dose-response curves and compute compound Ki values, using ATP Km values of 642 um and 83.2 uM for IRAK4 and IRAK1, respectively. Table 3 provides IRAK4 Ki values for representative compounds of the present invention.
In general terms: Fluorescence polarisation rises when a labelled molecule tumbles more slowly, as on binding a larger partner.

The next series is described as follows: Kinetic solubility assay. The class given is physicochemical. As to conditions: for solubility kinetic at 24 h: PBS buffer with 2% DMSO, aqueous buffer, kinetic from dmso stock, PBS buffer pH 7.4, 2% DMSO, 24 hours shaking at room temperature, UHPLC-CLND; for Fold improvement in kinetic solubility: example compound versus its matched pair phenyl compound. As for the experimental part: The kinetic solubility assay started with compound DMSO stock solutions. This assay used Millipore Multiscreen 96-well filter plates for the 24 hour equilibration shaking. Samples were prepared by adding 4 μL of the 10 mM compound DMSO stock solutions into 196 μL of PBS buffer pH 7.4 in the 96-well filter plates, yielding a compound concentration of 200 μM and 2% DMSO. The filter plate was sealed with aluminum sealing film and shaken at room temperature for 24 hours at 1000 rpm. When shaking has completed, the solutions were filtered into a clean 96-well plate utilizing a vacuum manifold. After filtration, some precipitate is often observed at the bottom of the filtration plate wells. Most of the precipitates appear to be crystalline under a polarizing light microscope. The filtrate samples were diluted by a factor of 2 using PBS pH7.4 buffer and then transferred to a 384-well plate for analysis by UHPLC-CLND (CLND: Chemiluminescence nitrogen detector). 5 μL of each sample was injected twice into the UHPLC-CLND for two repeat analysis.
Samples were detected and analyzed using UV 254 nm and CLND. UV 254 nm is used primarily to confirm the sample purity but in rare cases, is also used to quantify the concentration of compounds with no nitrogens, where additional work is done to create a compound specific calibration curve. The identification of CLND target peaks of each compound were confirmed by LCMS. Sample quantification was accomplished by CLND peak intensity, the calibration curve, and the number of nitrogen contained in the compound. One calibration curve of caffeine was used for solubility quantitative determination. A fresh calibration curve was created for every batch. The number of nitrogens in a compound used for this quantification was corrected for the actual configuration of the nitrogen in the compound.

Series [1] in a line: Plasma protein binding using rapid equilibrium dialysis (RED). The class given is in vitro ADME. As to conditions: pH 7.4, human plasma, 37° C., read-out: Human PPB (converted). As for the experimental part: Plasma protein binding was measured in duplicate using rapid equilibrium dialysis (RED) device ((Thermo Scientific Pierce) in a 96-well format. Briefly, 10.0 μL drug or control compounds (0.5 mM in DMSO) was mixed with 1000 μL plasma (pH adjusted to 7.4) from various species (BioreclamationIVT). Aliquots of 300 μL drug/plasma mixture were placed into the donor side chamber of a single-use RED plate, and 500 μL aliquots of PBS buffer were placed into the adjacent chamber as the receiver side. The plate was incubated on an orbital shaker at 400 rpm, at 37° C. for 4 hours. After completion of incubation, 50 μL aliquots from the PBS buffer side were mixed with 5 μL of blank plasma matrix, and 5 μL from the donor side (plasma) were mixed with 50 μL blank PBS buffer. All samples were then crashed with 200 μL acetonitrile (containing internal standard) to precipitate plasma proteins. The samples were centrifuged at 3750 rpm for 10 min to pellet the proteins. The supernatants were carefully transferred to a fresh 96-well plate, and diluted with an equivalent volume of water. The samples were then analyzed by LC-MS/MS (ABI 4000, ABI Sciex). Data acquisition and processing was performed with Analyst 1.6.1 and Multiquant 2.1. The percent of protein binding and fraction unbound (fu) in matrix was calculated from taking the ratio of responses (peak areas) on the receiver side (buffer) to those on the donor side (plasma). The ratios were normalized to the internal standard.
A general note: Equilibrium dialysis compares concentrations on both sides of a semipermeable membrane.

Molecules are shown by their SMILES. pKi: −log10 of the molar value. In brackets after ≈: the same amount, converted by molar mass.

Chain of human IRAK4 (Q9NWZ3 whole entry, the tested form may be a part): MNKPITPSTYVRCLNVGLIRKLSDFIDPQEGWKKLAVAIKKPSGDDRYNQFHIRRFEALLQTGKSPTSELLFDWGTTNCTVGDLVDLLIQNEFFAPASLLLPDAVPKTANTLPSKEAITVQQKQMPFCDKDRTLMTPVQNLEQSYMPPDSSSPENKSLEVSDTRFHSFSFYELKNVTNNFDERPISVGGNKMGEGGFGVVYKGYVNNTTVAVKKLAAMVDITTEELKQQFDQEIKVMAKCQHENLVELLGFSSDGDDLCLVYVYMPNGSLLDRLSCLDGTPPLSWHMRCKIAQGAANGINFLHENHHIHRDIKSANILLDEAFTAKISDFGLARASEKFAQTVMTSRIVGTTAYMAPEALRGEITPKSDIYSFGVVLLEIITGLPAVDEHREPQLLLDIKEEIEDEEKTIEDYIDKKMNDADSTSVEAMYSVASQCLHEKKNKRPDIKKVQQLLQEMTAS

For `CC1(C)Cc2cc(NC(=O)c3cnn4cccnc34)c(N3CCN(CC(F)F)CC3)nc2O1` [Example 9, N-(6-(4-(2,2-Difluoroethyl)piperazin-1-yl)-2,2-dimethyl-2,3-dihydrofuro[2,3-b]pyridin-5-yl)pyrazolo[1,5-a]pyrimidine-3-carboxamide], the pKi (in general, the negative decadic logarithm of the Ki, by convention in mol/L) on human IRAK4 was 8.12. Besides, in “Kinetic solubility assay”, the kinetic solubility (as a rule, the concentration staying in solution when a stock, usually in DMSO, is diluted into the medium) at 24 h was found to be 137 µM (≈ 62.7 µg/mL) and the “Fold improvement in kinetic solubility” value amounted to 137.0. Besides, the fraction unbound at 4 h, 5 µM in series [1] was 0.123.

`CC1(C)Cc2cc(NC(=O)c3cnn4cccnc34)c(N3CCN(CC(N)=O)CC3)nc2O1` [Example 6, N-[6-[4-(2-amino-2-oxo-ethyl)piperazin-1-yl]-2,2-dimethyl-3H-furo[2,3-b]pyridin-5-yl]pyrazolo[1,5-a]pyrimidine-3-carboxamide]: the pKi on human IRAK4 was 8.40. In “Kinetic solubility assay”, the solubility (kinetic) at 24 h amounted to 143 µM (≈ 64.4 µg/mL) and the “Fold improvement in kinetic solubility” value came to 14.6. Moreover, the fraction unbound at 4 h, 5 µM in series [1] is 0.226.

For the compound `C[C@]1(CO)Cc2cc(NC(=O)c3cnn4cccnc34)c(N3CCN(CC(F)F)CC3)nc2O1` (stereo in doubt) [Example 21, N-[rac-(2R)-6-[-(2,2-difluoroethyl)piperazin-l-yl]-2-(hydroxymethyl)-2-methyl-3H-furo[2,3-b]pyridin-5-yl]pyrazolo[1,5-a]pyrimidine-3-carboxamide], on human IRAK4, the pKi is 7.89. Also, in the series “Kinetic solubility assay”, the solubility (kinetic) at 24 h was 124 µM (≈ 58.7 µg/mL) and the “Fold improvement in kinetic solubility” value worked out at 27.0. The fraction unbound at 4 h, 5 µM in series [1] is 0.363.

The values are drawn from patent publication US11434250B2, “Pyrazolo[1,5a]pyrimidine derivatives as IRAK4 modulators” (Genentech, Inc., priority 2017, dated 2022).
